From patent EP3572411A1, “THIAZOLE DERIVATIVES AS METALLO-BETA-LACTAMASE INHIBITORS” (Antabio SAS, priority 2018, dated 2019)

Columns and labels:
Experiment in all cases: In vitro enzyme inhibition assay (imipenem hydrolysis, UV 299 nm)
Type in all cases: biochemical
VIM-1 = molecular target: T1, VIM-1 (Pseudomonas aeruginosa, UniProt A0A0F7KYQ8); settings: read-out: Ki (µM) VIM-1; purified enzyme, 10mM HEPES pH 7.5, Imipenem 300µM; mean Ki from IC50 by Cheng-Prusoff
T1 construct: VIM-1; VIM-2; IMP-1)
Protocol: (§1) In vitro enzyme inhibition assays: Enzyme inhibition assays are performed using purified MBL enzymes (NDM-1; VIM-1; VIM-2; IMP-1) in 10mM HEPES buffer pH 7.5 in 96-well microtiter plates. Imipenem (300µM) is used as substrates and its hydrolysis is followed at UV 299 nm during 10mn every 30 seconds using a Perkin Elmer Envision UV fluorescence plate reader. Hydrolysis rate data in presence of a range of inhibitors are analysed using Dotmatics database software and calculated IC50 values are converted to Ki values using the Cheng-Prusoff equation. Ki = IC50 / (1+([S]/Km) and where the Km values for […] are 70 µM, 1.5 µM, 9 µM and 25 µM respectively. Compound dilution is performed in DMSO. Mean Ki values from multiple experiments are presented. Results are shown in Table 1.

IMP-1 = molecular target: T2, IMP-1 (Serratia marcescens, UniProt P52699); settings: read-out: Ki (µM) IMP-1; purified enzyme, 10mM HEPES pH 7.5, Imipenem 300µM; mean Ki from IC50 by Cheng-Prusoff
T2 construct: VIM-1; VIM-2
Protocol: as §1

NDM-1 = molecular target: T3, NDM-1 (Klebsiella pneumoniae, UniProt C7C422); settings: read-out: Ki (µM) NDM-1; purified enzyme, 10mM HEPES pH 7.5, Imipenem 300µM; mean Ki from IC50 by Cheng-Prusoff
T3 construct: VIM-1; VIM-2
Protocol: as §1

VIM-2 = molecular target: T4, VIM-2 (Escherichia coli, UniProt Q5U7L7); settings: read-out: Ki (µM) VIM-2; purified enzyme, 10mM HEPES pH 7.5, Imipenem 300µM; mean Ki from IC50 by Cheng-Prusoff
T4 construct: VIM-1; VIM-2
Protocol: as §1

T3 sequence (C7C422 29-270, looked up): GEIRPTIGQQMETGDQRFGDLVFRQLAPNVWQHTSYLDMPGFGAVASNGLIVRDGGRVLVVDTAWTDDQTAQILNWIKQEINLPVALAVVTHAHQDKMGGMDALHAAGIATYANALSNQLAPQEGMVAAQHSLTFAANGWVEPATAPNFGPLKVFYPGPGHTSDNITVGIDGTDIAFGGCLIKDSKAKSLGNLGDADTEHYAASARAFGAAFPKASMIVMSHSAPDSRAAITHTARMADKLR
T2 sequence (P52699 19-246, looked up, species assumed): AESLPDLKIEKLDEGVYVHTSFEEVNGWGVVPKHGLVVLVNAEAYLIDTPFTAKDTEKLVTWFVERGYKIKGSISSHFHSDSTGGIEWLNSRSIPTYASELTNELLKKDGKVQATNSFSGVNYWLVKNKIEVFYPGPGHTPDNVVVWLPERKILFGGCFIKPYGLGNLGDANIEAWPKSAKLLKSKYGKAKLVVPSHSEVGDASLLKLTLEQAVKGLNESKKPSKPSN

In the case of `C[n+]1nnn(CC(=O)Nc2ccc(S(=O)(=O)Nc3scnc3C(=O)[O-])cc2F)c1N` [Example 26, 5-amino-1-[({4-[(4-carboxy-1,3-thiazol-5-yl)sulfamoyl]-2-fluorophenyl}carbamoyl)methyl]-4-methyl-1H-1,2,3,4-tetrazol-4-ium], the Ki (VIM-1) is reported as 0.2 to 0.5 µM, the Ki (IMP-1) is reported as 0.5 to 1 µM and the Ki (NDM-1) is reported as less than 0.05 µM. The Ki (VIM-2) was 0.05 to 0.2 µM.
